Molecular target: T1, human mineralocorticoid receptor (hMR) (Homo sapiens, UniProt P08235)
T1 construct: made in house; host or cells: Sf9 insect cells (baculovirus)
T1 sequence (P08235 1-984): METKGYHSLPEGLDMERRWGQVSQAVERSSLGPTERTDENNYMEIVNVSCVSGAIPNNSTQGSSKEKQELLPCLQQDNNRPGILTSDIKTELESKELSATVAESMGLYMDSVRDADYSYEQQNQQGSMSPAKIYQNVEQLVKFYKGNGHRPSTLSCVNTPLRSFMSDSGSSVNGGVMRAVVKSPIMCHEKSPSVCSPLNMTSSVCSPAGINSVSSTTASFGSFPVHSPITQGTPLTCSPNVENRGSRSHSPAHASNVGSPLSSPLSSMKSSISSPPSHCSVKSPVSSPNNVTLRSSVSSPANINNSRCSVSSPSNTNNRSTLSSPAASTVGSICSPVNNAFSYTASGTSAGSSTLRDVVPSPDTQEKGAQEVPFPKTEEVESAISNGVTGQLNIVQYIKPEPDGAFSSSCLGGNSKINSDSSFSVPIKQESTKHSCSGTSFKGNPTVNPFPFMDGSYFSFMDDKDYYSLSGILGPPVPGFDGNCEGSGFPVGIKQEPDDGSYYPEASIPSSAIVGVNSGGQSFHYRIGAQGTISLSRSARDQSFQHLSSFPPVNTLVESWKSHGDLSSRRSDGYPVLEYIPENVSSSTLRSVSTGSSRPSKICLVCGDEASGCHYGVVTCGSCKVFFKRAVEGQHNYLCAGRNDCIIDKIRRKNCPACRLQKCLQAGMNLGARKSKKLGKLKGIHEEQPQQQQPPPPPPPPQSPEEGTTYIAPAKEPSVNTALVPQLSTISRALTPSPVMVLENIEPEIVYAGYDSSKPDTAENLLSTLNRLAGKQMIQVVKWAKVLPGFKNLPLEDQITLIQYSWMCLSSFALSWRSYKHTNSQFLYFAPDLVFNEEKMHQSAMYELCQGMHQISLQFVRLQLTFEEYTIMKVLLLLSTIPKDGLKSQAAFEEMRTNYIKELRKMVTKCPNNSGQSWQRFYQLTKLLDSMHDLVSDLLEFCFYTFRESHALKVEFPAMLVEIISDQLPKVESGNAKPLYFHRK
Assay: Radioligand binding, [3H]aldosterone, hMR Sf9 lysate, vacuum filtration
Description: Full-length human mineralocorticoid receptor (hMR) to be used in radioligand binding was isolated from a human kidney cDNA library (Clontech, Palo Alto, CA). […] The hMR, hPR, and hAR cDNAs were subcloned in the eukaryotic expression vector pcDNA3. Methods for the expression of functionally active hMR, hAR and hPR utilizing the baculovirus expression system were described previously, [31].
Affinity of ligands to the soluble receptor was determined using vacuum filtration methods, preparing soluble receptors in 96-well Falcon polystyrene plates (BD Biosciences, Bedford, MA) in a total volume of 250 μl. […] Binding studies for ligands for hPR and hAR were determined using [1,2,6,7-3H(N)] […] Specific binding of 3H-progesterone for hPR and 3H-mibolerone for hAR was determined in the presence and absence of 1 μM mifepristone. Inhibition constants (Ki), were determined either from the Cheng-Prusoff equation[32], or directly using non-linear regression curve fitting to a three-parameter one-site competitive equation. […] Protein was measured using colorimetric detection and quantification of bicinchoninic acid (BCA Protein Assay, Pierce, Rockford, IL). […] Concentration response curves were analyzed statistically using a four-parameter logistic equation (Hill equation for sigmoid curves). […]

In the case of `O=c1[nH]c2ccc(/C=C3\c4ccc(F)cc4COc4cc(F)ccc43)cc2[nH]1` [Ly], the Ki (hMR expressed in Sf9, [3H]aldosterone 0.5 nM, read-out: Mean Ki ± SEM hMR) is reported as 1.6 ± 0.3 nM and the “Eple/Ly Ki ratio” value (hMR, 124/1.6) is reported as 77.5.
